According to article PMC7997579, “Synthetic Lethality in Pancreatic Cancer: Discovery of a New RAD51-BRCA2 Small Molecule Disruptor That Inhibits Homologous Recombination and Synergizes with Olaparib” (Journal of Medicinal Chemistry, 2020):

Experiments:
recombinant human RAD51 = biological target: T1, recombinant human RAD51 (Homo sapiens, UniProt Q06609); assay: Microscale thermophoresis (MST) binding assay; settings: labeled His-hRAD51, 35d up to 40 μM, three replicates, read-out: Kd (RAD51-35d interaction)
T1 construct: made in house; host or cells: E. coli Rosetta2(DE3)pLysS, pET15b-His-hRAD51
T1 sequence (Q06609 1-339): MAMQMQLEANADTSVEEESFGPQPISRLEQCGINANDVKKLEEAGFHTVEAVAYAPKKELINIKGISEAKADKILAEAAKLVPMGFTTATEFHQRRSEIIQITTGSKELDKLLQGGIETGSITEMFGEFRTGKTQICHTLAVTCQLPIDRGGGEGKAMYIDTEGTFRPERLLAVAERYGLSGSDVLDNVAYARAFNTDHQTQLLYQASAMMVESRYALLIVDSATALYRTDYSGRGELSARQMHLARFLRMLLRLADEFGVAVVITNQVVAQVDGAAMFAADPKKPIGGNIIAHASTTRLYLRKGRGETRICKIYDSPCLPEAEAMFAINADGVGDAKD
Procedure: To further assess the physical interaction between 35d and RAD51, a microscale thermophoresis (MST) assay was performed on the recombinant human RAD51 (see Experimental Section). The binding assay allowed us to determine the dissociation constant (Kd) for the RAD51-35d interaction and binding. […] This is in agreement with the ELISA assay, supporting the initial hypothesis that 35d could act as a RAD51-BRCA2 disruptor.
The recombinant protein hRAD51 was labeled with the Monolith His-Tag labeling kit RED-tris-NTA 2nd Generation kit (NanoTemper Technologies). MST measurements were simultaneously performed on 16 capillaries containing a constant concentration (25 nM) of labeled RED-tris-NTA 2nd Generation His-hRAD51 protein and 16 different concentrations of 35d in order to determine a concentration-dependent MST binding curve. The highest 35d concentration tested was 40 μM. Measurements were carried out in MST buffer (20 mM Hepes (pH 8.00), 250 mM KCl, 0.1 mM EDTA, 5% (v/v) glycerol, 5% DMSO).

BxPC-3 = assay: Cytotoxicity assay (CellTox Green), cell death; type: cell-based, human; settings: BxPC3, 72 h
Procedure: Cell death was assessed by applying the CellTox Green cytotoxicity assay (Promega). Briefly, BxPC-3 (1 × 10^4/well) were plated in 96-well plates and treated for 72 h with olaparib (10 μM) and the BRCA2-RAD51 disruptors administered alone or in combination. At the end of treatment, the CellTox dye was added to cell cultures and the green fluorescence signal, which is produced by the binding interaction with dead cell DNA, was measured following the manufacturer’s instructions.

RAD51 in BxPC-3 nuclei = assay: Immunofluorescence of RAD51 nuclear localization after cisplatin; type: cell-based, human; settings: BxPC-3, 50 μM cisplatin in association with 20 μM 35d
Procedure: Immunofluorescence was used for studying RAD51 nuclear translocation and for evaluating DNA damage through the detection of γH2AX nuclear foci. To visualize RAD51 in cell nuclei, BxPC-3 cells were seeded on glass coverslips placed in a 6-well culture plate (2 × 10^5 cells/well) and allowed to adhere overnight. Cultures were then preincubated with 20 μM 35d for 1 h and subsequently exposed to 50 μM cisplatin for an additional 1.5 h. Medium was removed, and cells were maintained in the presence of 20 μM 35d for 4 h. After this time, cultures growing on coverslips were fixed in PBS containing 1% formalin for 20 min, permeabilized in 70% ethanol, air-dried, and washed twice with PBS. Samples were incubated in 10% bovine serum albumin (BSA) in PBS for 30 min at 37 °C and subsequently exposed to an anti-RAD51 mouse monoclonal antibody (Santa Cruz Biotechnology, 1:1000 in 5% BSA/PBS) overnight at 4 °C. After washing, coverslips were incubated with an anti-mouse FITC-conjugated secondary antibody (1:1000 in 1% BSA/PBS) for 1 h at 37 °C, washed, air-dried, and mounted with a solution of DAPI (2 μg/mL) and DABCO.

BxPC-3 cells = assay: Immunofluorescence of nuclear γ-H2AX foci (DNA damage); type: cell-based, human; settings: BxPC-3, 48 h, 20 μM 35d + 10 μM olaparib vs olaparib alone
Procedure: (§1) To evaluate DNA damage through γH2AX nuclear foci, BXPC3 and Capan1 cells were seeded on glass coverslips in 6-well tissue culture plate (2 × 10^5 cells/well) and allowed to adhere overnight. After 48 h treatment with olaparib (10 μM) or 35d (20 μM) given alone or in combination, cultures growing on coverslips were fixed and treated as described above. For this experiment, the used antibodies were a rabbit polyclonal anti-γH2AX (Abcam, 1:1000 in 5% BSA/PBS) and a secondary anti-rabbit rhodamine-labeled (Novus Biologicals, 1:1000 in 1% BSA/PBS). For both experiments, images were acquired using a Nikon fluorescent microscope equipped with filters for FITC, TRITC, and DAPI. The percentage of cells bearing nuclear foci was estimated by two independent observers, by analyzing 100–250 cells for each treatment sample.

Capan-1 cells = assay: as above; type: cell-based, human; settings: Capan-1, 48 h, 20 μM 35d coadministered with 10 μM olaparib vs olaparib alone
Procedure: as §1

BxPC3 cells = assay: Micronuclei visualization; type: cell-based, human; settings: BxPC3, 72 h, 20 μM 35d + 10 μM olaparib vs single agents; p <0.01
Procedure: For micronuclei visualization, cells were grown on coverslips placed in a 6-multiwell plate (5 × 10^5 cells/well). After a 72 h treatment with olaparib (10 μM) or 35d (20 μM) given alone or in combination, wells were rapidly washed with PBS and then fixed for 10 min with cold methanol. Coverslips were then air-dried and mounted on glass slides using a solution of DAPI (5 μg/mL)/DABCO. Images were acquired on a Nikon fluorescent microscope equipped with filters for DAPI. […] The percentage of cells bearing micronuclei was estimated by two independent observers, by analyzing 100–250 cells for each treatment sample.

HK-2 = assay: Cell viability assay (antiproliferative effect), association with olaparib; type: cell-based, human; settings: HK-2, 72 h, 10 μM olaparib; two-way ANOVA
Procedure: Finally, the antiproliferative effect of the 35d/olaparib combination was also studied on the HR-defective Capan-1 culture and on a non-neoplastic cell line derived from human kidney (HK-2). Moreover, to evaluate the antineoplastic potency of the 35d/olaparib association, we also calculated the combination index (CI) of the two compounds, using the procedure previously described[30],[31] (Figure 9).
Cell viability was assessed with the CellTiter-Glo luminescent cell viability assay from Promega. For this experiment, 1 × 10^4 cells in 200 μL of culture medium were seeded into each well of a 96-multiwell white body plate and allowed to adhere overnight. After 72 h incubation in the presence of olaparib (10 μM) and the RAD51-BRCA2 disruptors alone or in combination, the plate was allowed to equilibrate at room temperature for 30 min and the CellTiter-Glo reactive was directly added to each well. The plate was kept on a shaker for 10 min to induce cell lysis, and its luminescence was measured with a Fluoroskan Ascent FL reader (Labsystems).

**Q.** For CCC(=O)N1N=C(c2c(-c3ccccc3)c3cc(Cl)ccc3[nH]c2=O)CC1c1ccc(OC)cc1 (centres unmarked) [Compound 35d, 6-Chloro-3-(5-(4-methoxyphenyl)-1-propionyl-4,5-dihydro-1H-pyrazol-3-yl)-4-phenylquinolin-2(1H)-one], which Kd (recombinant human RAD51) is on record?
**A.** Its Kd is 11 ± 6 µM.

**Q.** And the “cell death, effect of olaparib coadministration” value (BxPC-3; 20 μM 35d + 10 μM olaparib, p < 0.0001)?
**A.** Its value is “markedly increased and statistically significant”.

**Q.** What about the “cell death, effect of olaparib coadministration” value (BxPC-3; 10–15 μM 35d + 10 μM olaparib) of the same compound?
**A.** Its value is “no statistically significant increase”.

**Q.** And the “RAD51 nuclear foci in cisplatin-treated cells” value (RAD51 in BxPC-3 nuclei)?
**A.** Its value is “significantly reduced”.

**Q.** What about the “γ-H2AX labeling in nuclei” value (BxPC-3 cells) of the same compound?
**A.** Its value is “increased”.

**Q.** What about the “γ-H2AX labeling in nuclei” value (Capan-1 cells) of the same compound?
**A.** The value was “not further enhanced”.

**Q.** And the cells bearing micronuclei (BxPC3 cells)?
**A.** The cells bearing micronuclei was “markedly more frequent”.

**Q.** What about the “antiproliferative effect of 35d/olaparib vs olaparib” value (HK-2) of the same compound?
**A.** The value was “no dose of 35d appeared to significantly increase”.
